Where no end group is shown, it is not given here.
Tests used:
VLA-4 = conditions: cited from earlier work
Text: (§1) In contrast, cell aggregates were clearly visible in cultures after stimulation (Figure 3A, b). […] Macrophage phenotype was confirmed by testing surface antigens by flow cytometry. Monocyte-derived macrophages expressed higher levels of HLA-DR and CD14 than undifferentiated monocytes ([51]). In addition, expression of CD54 (ICAM-1) was diminished in comparison with freshly isolated monocytes (Figure 6B). […] As shown ...

Mac-1 = conditions: cited from earlier work
Text: as §1

human monocytes = assay: Human monocyte adhesion to plastic (MTT); type: cell-based; conditions: lovastatin 100 µM, 37°C overnight
Description: (§2) Monocytes were isolated from human peripheral blood mononuclear cells (PBMCs), obtained from healthy donors (Blood and Tissue Bank of Aragon; approved by the CEICA, number: C.I.PI11/006) by density gradient centrifugation using Ficoll-Paque (GE healthcare). PBMCs were resuspended at a concentration of 2.5 × 10^6 cells/ml in RPMI medium supplemented with 1% heat-inactivated human AB serum (Sigma). Cells were cultured in a Petri dish for 2 h at 37°C 5% CO2. […]
(§3) Freshly isolated monocytes or differentiated macrophages were washed twice with PBS and incubated with trypsin (PAN Biotech) for 30 min at 37°C 5% CO2. […] Next day, every well was washed twice with PBS, complete RPMI medium was added and the number or adherent remaining cells was quantified by a MTT colorimetric test ([38]). […]
(§4) Figure 6 LFA-1 is involved in human macrophage adhesion. […] (B) Macrophage phenotype was analyzed by flow cytometry testing the expression of HL-DR, CD14, CD54, and CD11a. […] Subsequently, every well was washed twice with PBS to remove non-adherent cells and quantification of cell adhesion was carried out by MTT as described in Section “Experimental Procedures.” Values are presented as mean ± SEM of three independent experiments performed by duplicate. […]

mouse macrophages = assay: Mouse macrophage adhesion to uncoated plastic (MTT); type: cell-based; conditions: lovastatin 100 µM, 37°C overnight
Description: Mouse macrophages were differentiated from mouse bone marrow as previously described ([37]). Briefly, bone marrow cells isolated from mouse femur were cultured in DMEM 10% FBS, 5% horse serum, and 30% supernatant of L929 cell culture as a source of M-CSF at a density of 10^6/cm^2 for 7–8 days. Macrophage differentiation was analyzed in the same way as human macrophages but using CD11b-APC and CD11c-PE (BD) antibodies.
Freshly isolated monocytes or differentiated macrophages were washed twice with PBS and incubated with trypsin (PAN Biotech) for 30 min at 37°C 5% CO2. After that, cells were scraped gently from the plate and resuspended at a final concentration of 10^6 cells/ml in complete RPMI medium. Subsequently, 10^5 macrophages and 5 × 10^5 monocytes were added to each well and incubated with several concentrations of human D1D2, D1D2Fc, D1D5Fc, mouse D1D5Fc, control human IgG1 20 µg or lovastatin 100 µM at 37°C 5% CO2 overnight. Next day, every well was washed twice with PBS, complete RPMI medium was added and the number or adherent remaining cells was quantified by a MTT colorimetric test ([38]). In some experiments, plates previously coated with human and mouse D1D5Fc were used. […]
Figure 7 Human intercellular adhesion molecule (ICAM)-1 blocks LFA-1-mediated mouse macrophage cell adhesion. […] (B) Macrophage phenotype was analyzed by flow cytometry testing the expression CD11b and CD11c. […]

ICAM-1/LFA-1 interaction = conditions: cited from earlier work
Description: Human and mouse LFA-1-derived peptides (human: CD11a237–261; mouse: CD11a235–259) were purchased from GenScript (Piscataway, USA) without any modification. […] Besides, incubation cells with a mouse antiCD1 ...

human macrophages = assay: Human macrophage adhesion to plastic (MTT); type: cell-based; conditions: lovastatin 100 µM, 37°C overnight
Description: as §2, §3, §4

[1] = system: mouse B cells (ICAM-1/LFA-1 interaction); assay: Homotypic B cell aggregation assay; type: cell-based; conditions: splenocytes activated with PHA and ionomycin, overnight 37°C
Description: To obtain these cells, mice were sacrificed by cervical dislocation, the spleens were removed, and splenocytes were isolated and resuspended in RPMI 10% FBS at a final concentration of 10^6 cells/ml. Cells were treated with 10 µg/ml PHA and 1 µg/ml ionomycin to activate LFA-1 and incubated at 37°C 5% CO2 overnight in flat bottom 96-well plates (10^5 cells) in the presence of peptides from LFA-1 and c-Myc (control) 250 µM, D1D2, D1D2Fc, and human IgG1 10 µg, EGTA 1 mM and lovastatin 100 µM. A qualitative aggregation assay was carried out as described ([36], [41]) with a slight modification. Briefly, positive control stimulated cell samples were arbitrarily assigned a clumping index of 10 and lovastatin samples an index of 1. Test samples were ranked from 1 to 10 based upon degree of clumping relative to stimulated and lovastatin-treated samples. Results were verified by a blind independent rating performed by a second observer.
Fresh mouse B cells were obtained from splenocytes and stimulated with PHA and ionomycin to induce homotypic adhesion. The results were quantified by establishing a clumping index that represents the degree of cell aggregation, which reflects the inhibition efficiency (Figure 3B). Cell aggregation was ranked by a clumping index from 1 to 10 based on the degree of aggregation in comparison with the stimulated cells (positive control, clumping index = 10).
Figure 3 Effect of human (ICAM-1) on the aggregation of mouse spleen cells. (A) Splenocytes isolated from mice were non treated (a) or activated with PHA (b–i) as described in Section “Experimental Procedures” and further incubated overnight with (b) medium; (c) IgG1; (d) c-Myc peptide; (e) EGTA; (f) lovastatin; (g) D1D2; (h) D1D2Fc; (i) mouse LFA-1 peptide CD11a235–259. Images were taken with an optical microscope (original magnification, 10×). Representative images from two independent experiments with similar results are shown. (B) The graph represents the rate of agglutination depending on the inhibitory effect on ICAM-1/LFA-1 interaction. Cells stimulated with PHA and ionomycin, which served as a positive control, were arbitrarily assigned agglutination index 10, which represents a percentage of aggregation between 90 and 100%. Homotypic aggregation was classified from 1 to 10 depending on the degree of aggregation relative to cells stimulated. The result was verified by a second independent observer. Values are presented as mean ± SEM of two separate experiments performed by duplicate. Statistical analysis was performed using two-way analysis of variance with Bonferroni’s posttest comparing with c-Myc peptide control. *p < 0.05; ***p < 0.001.

[2] = system: gp33-pulsed EL4 cells killed by mouse Tc cells (ICAM-1/LFA-1); assay: CD8+ T cell-mediated cytotoxicity on EL4; type: cell-based; conditions: preincubation 45 min 37°C, effector:target 10:1, 4 h
D1D2Fc = molecular target: T1, D1D2Fc (Homo sapiens, UniProt P05362); assay: Isothermal titration calorimetry (ITC); conditions: VP-ITC, D1D2Fc 12 µM titrated with peptide 150 µM, PBS, 25°C, 1:n interaction model, single type of binding sites, nonlinear regression, read-out: dissociation constant (KD)
T1 construct: The synthetic first two domains of ICAM-1 alone (D1D2) or linked with human IgG1 Fc region (D1D2Fc) were expressed in Escherichia coli; made in house; host or cells: Escherichia coli
Description: The ability of the human chimera D1D2Fc to interact with a peptide derived from its natural ligand LFA-1 in mouse was analyzed by ITC on a VP-ITC calorimeter (MicroCal) at 25°C as indicated previously ([34]). Briefly, 2.2 ml of a 12-µM solution of D1D2Fc and 0.5 ml of a 150-µM solution of peptide were prepared in PBS and degassed. Each assay consisted of a series of 28 injections of peptide solution of 10 µl each (with a 4-µl first injection) at 400 s intervals under constant stirring (459 rpm). The thermal power required to keep the cell at a constant temperature is measured, so that it provides the heat associated with each ligand injection after integrating the signal over time. The thermodynamic parameters of protein–peptide interactions (affinity, enthalpy, and entropy changes) as well as the stoichiometry were estimated by using nonlinear regression analysis. Data were analyzed using the software developed and implemented in Origin 7.0 (OriginLab).
Figure 1 Interaction of LFA-1 peptide with D1D2Fc by isothermal titration calorimetry. Purified D1D2Fc (12 µM) was titrated with a peptide derived from the binding site of mouse LFA-1 (CD11a235–259; 150 µM). The assay was performed in PBS buffer at 25°C. The nonlinear regression analysis done as described in Section “Experimental Procedures” provided a dissociation constant of 70 nM.

[3] = system: K562 cells killed by human NK cells (ICAM-1/LFA-1); assay: NK cell-mediated cytotoxicity on K562; type: cell-based; conditions: peptide 250 µM, preincubation 45 min 37°C; effector:target 3:1, 4 h; annexin-V/7-AAD by FACS; vs c-Myc control; two experiments by duplicate
Description: The effect of human and mouse peptides derived from LFA-1 on ICAM-1/LFA-1 dependent cell–cell contact was analyzed by performing a cell cytotoxicity assay using human primary NK cells and the NK cell sensitive human leukemia K562. Primary activated human NK cells were generated by culturing PBMCs with mitomycin C inactivated R69 cells for 5 days and enriched by MACS using anti-CD56 antibodies as previously described ([39]). Cell cytotoxicity induced by NK cells on K562 was analyzed by flow cytometry as previously described ([39]). Briefly, K562 cells were preincubated with medium alone, in the presence of 250 µM of human and mouse peptides from LFA-1 or D1D2 (15 µg) for 45 min at 37°C. Then, NK cells were added at 3:1 effector:target cell ratio and incubated for 4 h at 37°C, 5% CO2. Subsequently, phosphatidylserine exposure and 7-AAD uptake were analyzed by FACS using the annexin-V/7-AAD kit from Immunostep. As a control, the cells were incubated alone with the inhibitors to evaluate their possible toxicity, which was not significant in any case.
Figure 4 Inhibition of natural killer (NK) cell-mediated cytotoxicity by human intercellular adhesion molecule-1. […] Cell death was analyzed by measuring translocation of PS by flow cytometry in the negative population for CFSE as described in experimental procedures. […]

T1 sequence (P05362 with tags, fused parts or gaps limits assumed): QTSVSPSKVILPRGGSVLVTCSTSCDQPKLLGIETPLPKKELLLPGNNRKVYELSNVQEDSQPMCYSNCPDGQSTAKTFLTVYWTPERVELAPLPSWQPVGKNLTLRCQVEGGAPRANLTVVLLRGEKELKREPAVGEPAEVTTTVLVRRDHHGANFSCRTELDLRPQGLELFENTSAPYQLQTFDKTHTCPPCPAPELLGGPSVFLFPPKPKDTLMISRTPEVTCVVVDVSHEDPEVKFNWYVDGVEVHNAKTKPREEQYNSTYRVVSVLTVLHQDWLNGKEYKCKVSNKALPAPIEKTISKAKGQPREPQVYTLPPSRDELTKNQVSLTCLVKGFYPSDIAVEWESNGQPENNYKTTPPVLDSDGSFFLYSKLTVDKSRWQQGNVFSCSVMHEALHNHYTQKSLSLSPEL

Row | Compound | effect on VLA-4 (VLA-4; ref [42], [43]) | inhibition of VLA-4 (VLA-4; ref [43]) | effect on Mac-1 (Mac-1; ref [42], [43]) | inhibition of Mac-1 (Mac-1; ref [43]) | inhibition of adhesion of human monocytes (human monocytes) | inhibition of adhesion of mouse macrophages (mouse macrophages) | specific block of ICAM-1/LFA-1 interaction (ICAM-1/LFA-1 interaction; ref [42], [43]) | inhibition of adhesion of human macrophages (human macrophages) | inhibition of B cell aggregation ([1]; lovastatin 100 µM, assigned clumping index 1) | inhibition of Tc cell-mediated cell death of EL4 ([2]; lovastatin 100 µM) | ability to block ICAM-1/LFA-1 interaction (ICAM-1/LFA-1 interaction; ref [36]) | Kd (D1D2Fc) [nM] | inhibition of B cell aggregation ([1]; peptide 250 µM, clumping index 1-10, two experiments by duplicate) | inhibition of Tc cell-mediated cell death of EL4 ([2]; peptide 250 µM, three experiments by duplicate) | inhibition of NK cell-mediated cell death of K562 [3]
1 | CC[C@H](C)C(=O)O[C@H]1C[C@@H](C)C=C2C=C[C@H](C)[C@H](CC[C@@H]3C[C@@H](O)CC(=O)O3)[C@H]21 [lovastatin, reference compound] | without affecting | not inhibited | without affecting | not inhibited | block completely cell adhesion | completely inhibit the adhesion | specifically block ICAM-1/LFA-1 interaction | block completely cell adhesion | inhibit completely the aggregation | inhibited cell death | – | – | – | – | –
2 | ITDGEASDKGNISAAHDITRYIIGI [CD11a235–259] | – | – | – | – | – | – | – | – | – | – | ability to block ICAM-1/LFA-1 interaction | 70 | completely blocked B cell aggregation | able to inhibit cytotoxicity | significantly inhibit cell death

Source: paper PMC5742583, “A Functional Analysis on the Interspecies Interaction between Mouse LFA-1 and Human Intercellular Adhesion Molecule-1 at the Cell Level” (Frontiers in Immunology, 2017)
